# Assay results from ChEMBL document CHEMBL1129361, “Modulators of leukotriene biosynthesis and receptor activation” (J Med Chem, 1996).
# How the values were obtained:
# [1] = phase 1 oral half life at a dose 200 mg.; assay type: ADME, organism-based; details: human, in vivo
# Cavia porcellus [2] = assay: Compound was tested for in vivo inhibition against gp AA bronchospasm.; assay type: functional; details: Bronchiole
# [3] = Compound was tested for in vivo inhibition against gp antigen bronchospasm.; assay type: functional; details: Cavia porcellus, Bronchiole
# Homo sapiens [4] = organism: Homo sapiens; assay: Compound was tested for in vitro inhibition against human whole blood.; assay type: functional
# Mus musculus [5] = assay: Compound was tested for in vivo inhibition against mouse AA ear edema.; assay type: functional
# Homo sapiens [6] = organism: Homo sapiens; assay: Compound was tested for in vitro inhibition against human PMNL.; assay type: functional
# RBL-1 = assay: Compound was tested for in vitro inhibition against broken RBL-1.; assay type: functional; details: Rattus norvegicus
# Rattus norvegicus [7] = assay: Compound was tested for in vivo inhibition against rat peritoneal anaphylaxis.; assay type: functional
# Cavia porcellus [8] = assay: Compound was tested in vivo for LTB4 induced neutrophil chemotaxis in guinea pig(orally) at duration 5.5 h; assay type: functional; details: po
# Homo sapiens [9] = organism: Homo sapiens; assay: Compound was tested in vitro for inhibitory activity in LTB4 induced neutrophil degranulation; assay type: functional
# Mus musculus [10] = assay: Compound was tested in vivo inhibitory activity against PMA induced ear edema.; assay type: functional
# Cavia porcellus [11] = assay: Compound was tested for in vivo inhibition against gp antigen bronchospasm; assay type: functional; details: Bronchiole
# Homo sapiens [12] = organism: Homo sapiens; assay: Compound was tested for in vitro inhibition against human whole blood; assay type: functional
# Mus musculus [13] = assay: Compound was tested for in vivo inhibition against mouse AA ear edema; assay type: functional
# Mus musculus [14] = organism: Mus musculus; assay: Compound was tested for in vitro inhibition against murine macrophage; assay type: functional
# Rattus norvegicus [15] = assay: Compound was tested for in vivo inhibition against rat zymosan-inflamed air pouch; assay type: functional
# Cavia porcellus [16] = assay: Compound was tested in vivo inhibitory activity to block 12 (R)-HETE skin inflammation (peroral administration) at 3 mg/kg; assay type: functional; details: route oral
# Cavia porcellus [17] = assay: Compound was tested in vivo inhibitory activity against LTB4 induced neutrophil cutaneous influx in guinea pig; assay type: functional
# Homo sapiens [18] = organism: Homo sapiens; assay: Compound was tested in vitro inhibitory activity against […] induced Ca mobilization.; assay type: functional, organism-based
# Homo sapiens [19] = organism: Homo sapiens; assay: Compound was tested in vitro inhibitory activity against […] induced chemotaxis of human neutrophil; assay type: functional
# Homo sapiens [20] = assay: Shift in LTB-4 dose response curve for CD11b upregulation in normal volunteers; assay type: functional
# Mus musculus [21] = assay: Compound was tested in vivo inhibitory activity against LTB4 induced neutrophil cutaneous influx in mouse.; assay type: functional
# Homo sapiens [22] = organism: Homo sapiens; assay: Compound was tested in vitro inhibitory activity against human neutrophil CD11b/CD18.; assay type: functional; details: read-out: pA2 (converted)
# Cavia porcellus [23] = organism: Cavia porcellus; assay: Compound was tested for LTD4 induced guinea pig trachea contraction.; assay type: functional
# Homo sapiens [24] = assay: Compound was shown 8 fold shift in LTD4 dose response curve 2 hours after 250 mg oral dose.; assay type: functional
# [25] = target: T1, Cysteinyl leukotriene receptor (Homo sapiens, UniProt Q9Y271+Q9NS75); assay: Binding affinity against Cysteinyl leukotriene D4 receptor; assay type: protein assay
# T1 sequence (Q9Y271 whole entry): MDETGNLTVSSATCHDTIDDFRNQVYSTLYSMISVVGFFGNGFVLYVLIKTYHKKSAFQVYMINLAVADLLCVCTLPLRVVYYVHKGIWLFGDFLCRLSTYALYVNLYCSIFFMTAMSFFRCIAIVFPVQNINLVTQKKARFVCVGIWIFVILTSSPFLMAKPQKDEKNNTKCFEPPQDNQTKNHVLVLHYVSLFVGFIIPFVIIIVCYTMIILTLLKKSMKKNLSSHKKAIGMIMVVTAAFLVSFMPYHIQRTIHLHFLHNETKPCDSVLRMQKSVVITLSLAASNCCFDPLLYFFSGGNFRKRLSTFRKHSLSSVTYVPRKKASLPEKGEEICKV
# T1 sequence (Q9NS75 whole entry): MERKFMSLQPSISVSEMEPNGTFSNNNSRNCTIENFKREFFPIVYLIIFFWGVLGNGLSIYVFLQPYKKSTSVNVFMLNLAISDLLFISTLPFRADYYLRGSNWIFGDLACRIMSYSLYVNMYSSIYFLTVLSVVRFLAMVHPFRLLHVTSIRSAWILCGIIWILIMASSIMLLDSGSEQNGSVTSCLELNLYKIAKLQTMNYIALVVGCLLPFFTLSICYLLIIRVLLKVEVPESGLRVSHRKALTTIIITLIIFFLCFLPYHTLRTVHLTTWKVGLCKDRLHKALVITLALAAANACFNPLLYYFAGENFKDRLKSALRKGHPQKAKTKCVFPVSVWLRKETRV
# Cavia porcellus [26] = organism: Cavia porcellus; assay: Compound was tested for LTD4 induced guinea pig trachea contraction; assay type: functional; details: for Kb: read-out: pA2 (converted)
# Cavia porcellus [27] = organism: Cavia porcellus; assay: Compound was evaluated for LTD4 induced against guinea pig trachea contraction; assay type: functional
# [28] = target: T2, Cysteinyl leukotriene receptor 1 (Homo sapiens, UniProt Q9Y271); assay: Compound were tested for inhibitory activity against Cysteinyl leukotriene D4 receptor
# T2 sequence (Q9Y271 whole entry): T1 sequence (Q9Y271 whole entry)
# Cavia porcellus [29] = assay: Compound was tested in vivo inhibitory activity against LTB4 induced bronchoconstriction in guinea pig (intravenous).; assay type: functional
# Cavia porcellus [30] = assay: Compound was tested in vivo inhibitory activity against LTB4 induced bronchoconstriction in guinea pig(po); assay type: functional
# [31] = phase 1 oral half life at a dose 400 mg.; assay type: ADME, organism-based; details: human, in vivo
# Cavia porcellus [32] = assay: Compound was tested for in vivo inhibition on gp antigen bronchospasm.; assay type: functional; details: Bronchiole
# Rattus norvegicus [33] = assay: Compound was tested for in vivo inhibition on rat PMNL.; assay type: functional
# Homo sapiens [34] = organism: Homo sapiens; assay: Compound was tested for in vitro inhibition on human PMNL.; assay type: functional
# Homo sapiens [35] = assay: Compound was evaluated for LTD4 induced bronchoconstriction (shift in dose response curve 2 hr after 40 mg oral administration); assay type: functional
# Homo sapiens [36] = assay: Compound was evaluated for LTD4 induced bronchoconstriction (shift in dose response curve 2 hr after 40 mg oral administration) shift persisted for 24 hrs; assay type: functional
# Cavia porcellus [37] = organism: Cavia porcellus; assay: Compound was evaluated for LTD4 induced guinea pig trachea contraction; details: read-out: pA2 (converted)
# Homo sapiens [38] = assay: Fold shift in LTD4 dose response curve following 280 mg intravenous dose in asthmatic patients.; assay type: functional
# Homo sapiens [39] = assay: Fold shift in LTD4 dose response curve following 250 mg oral dose.; assay type: functional
# [40] = target: T2, Cysteinyl leukotriene receptor 1; assay: Compound was tested for inhibitory activity against LTD4 (leukotriene).; assay type: functional
smiles,measurement,setting,value
C[C@H](C#Cc1ccc(Oc2ccc(F)cc2)o1)N(O)C(N)=O,half-life,[1],7 h
same,ED50,Cavia porcellus [2],2 mg/kg
same,ED50,[3],2.5 mg/kg
same,IC50,Homo sapiens [4],80 nM
same,ED50,Mus musculus [5],3 mg/kg
same,IC50,Homo sapiens [6],25 nM
same,IC50,RBL-1,54 nM
same,ED50,Rattus norvegicus [7],1.5 mg/kg
CCCc1c(OCCCOc2ccc(C(C)=O)c(OC)c2CCC)ccc2c1OC(C(=O)O)CC2 (stereo not given) [SC-41390],ED50,Cavia porcellus [8],1.7 mg/kg
same,IC50,Homo sapiens [9],1080 nM
same,ED50,Mus musculus [10],4200 nM
COC1(c2cc(F)cc(OCc3ccc4c(ccc(=O)n4C)c3)c2)CCOCC1 [ZD-2138],ED50,Cavia porcellus [11],0.1 mg/kg
same,IC50,Homo sapiens [12],20 nM
same,ED50,Mus musculus [13],1.8 mg/kg
same,IC50,Mus musculus [14],3 nM
same,ED50,Rattus norvegicus [15],0.3 mg/kg
O=C(O)C1(c2ccc3c(c2)OC[C@H](Cc2ccc(-c4ccccc4)cc2)[C@H]3O)CCCC1,inhibition in vivo at 3 mg/kg,Cavia porcellus [16],75%
same,ED50,Cavia porcellus [17],0.3 mg/kg
same,IC50,Homo sapiens [18],940 nM
same,IC50,Homo sapiens [19],5 nM
same,Activity,Homo sapiens [20],10
same,ED50,Mus musculus [21],4.2 mg/kg
same,Kb,Homo sapiens [22],10 nM
O=C(O)CC[C@@H](/C=C\Cc1ccc(OCCCCOc2ccccc2)cc1)Sc1ccc(C(=O)O)cc1,pKB,Cavia porcellus [23],8.4
same,Activity,Homo sapiens [24],8
CCCc1c(OCCCC/C=C\C=C\[C@H](Sc2ccc3c(=O)cc(C(=O)[O-])oc3c2)[C@H](O)c2cccc(C(F)(F)F)c2)ccc(C(C)=O)c1O.[Na+],Ki,[25],26 nM
CCCCCCCCC/C=C\C=C\[C@@H](SCCC(=O)O)[C@@H](O)c1cccc(-c2nnn[nH]2)c1,Kb,Cavia porcellus [26],5.01 nM
CCCCCC(O)c1cccc(OCc2ccc3ccccc3n2)c1 (stereo not given) [REV-5901],Ki,[25],700 nM
same,pKB,Cavia porcellus [27],5.5
CN(C)C(=O)CCS[C@H](SCCC(=O)[O-])c1cccc(/C=C/c2ccc3ccc(Cl)cc3n2)c1.[Na+],IC50,[28],3.1 nM
same,pKB,Cavia porcellus [26],8.8
CCc1cc(C(C)=O)c(O)cc1OCCCCCC(C)(C)c1nn[nH]n1 [LY-255283],ED50,Cavia porcellus [29],2.8 mg/kg
same,ED50,Cavia porcellus [30],11 mg/kg
CC(C)(O)c1ccccc1CC[C@@H](SCC1(CC(=O)O)CC1)c1cccc(/C=C/c2ccc3ccc(Cl)cc3n2)c1 [MONTELUKAST],Kb,Cavia porcellus [26],0.501 nM
CC(=O)N(O)C/C=C/c1cccc(Oc2ccccc2)c1,half-life,[31],2 h
same,ED50,Cavia porcellus [32],10 mg/kg
same,ED50,Rattus norvegicus [33],54 mg/kg
same,IC50,Homo sapiens [34],40 nM
COc1cc(C(=O)NS(=O)(=O)c2ccccc2C)ccc1Cc1cn(C)c2ccc(NC(=O)OC3CCCC3)cc12 [ZAFIRLUKAST],Activity,Homo sapiens [35],117
same,Activity,Homo sapiens [36],5
same,Kb,Cavia porcellus [37],0.316 nM
CN(C)C(=O)CCSC(SCCC(=O)[O-])c1cccc(/C=C/c2ccc3ccc(Cl)cc3n2)c1.[Na+] (stereo not given),Ki,[25],0.2 nM
same,Activity,Homo sapiens [38],>83
O=C(O)c1ccccc1Nc1cccc(OCc2ccc3ccccc3n2)c1 [SR-2640],Activity,Homo sapiens [39],<2
same,IC50,[40],23 nM
